In patent publication US10159640B2, “Prebiotic oral care compositions containing amino acids” (COLGATE-PALMOLIVE COMPANY, priority 2013, dated 2018):

Columns and labels:
Format in all cases: cell-based
[1] = test system: Aggregatibacter actinomycetemcomitans; assay: Metabolic activity, Biolog phenotype microarray; conditions: control without dipeptide = 1
Method: (§1) The extent of metabolic activity of the tested bacteria in the presence of the above-mentioned dipeptides after 24 hours and 48 hours was investigated through a high throughput phenotype microarray system (PM) for microbial cells (Biolog Inc.). Each PM can contain up to 95 different biochemical compounds (e.g. di-peptides) that may act as substrates for bacteria as well as one negative control, not containing the substrates. Microarray plates were used in which the different wells of each plate were pre-loaded (by the manufacturer, Biolog Inc.) with different di-peptides to be tested. Each bacterial species was tested using a separate microarray plate. Thus, a single bacterial species was tested with a variety of dipeptides on each particular plate. The microarrays are based on redox technology, using cell respiration as a universal reporter. Active cell respiration results in the reduction of a tetrazolium dye and in the formation of a strong color—for example, when using the tetrazolium dye “Biolog Redox Dye Mix D”, the color changes from transparent/colourless to purple when the dye is reduced. The observation of this color change indicates which of the substrates improve the metabolic activity and health of the cells. Each bacterial species was collected from blood agar plates (incubated for 48 hours anaerobically at 37° C.) and transferred to an IF-0 Base inoculation fluid (Biolog Inc.), which is a nutritionally poor medium. The resulting cell suspension was adjusted to a transmittance of 42% (relative to the transmittance of the base inoculation fluid with no bacterial species present) at 492 nm using a BioRad SmartSpec 3000 Photometer (the adjustment being effected by adding either further inoculation fluid or further bacteria until the transmittance of 42% was achieved). A 1:5 dilution of this suspension was prepared by mixing 3 mL of the 42% transmittance cell suspension with 15 mL of an inoculation fluid (which inoculation fluid was formed by mixing 11.6 mL sterile water, 62.5 mL IF-0 base inoculation fluid and 0.9 mL of the tetrazolium dye “Biolog Redox Dye mix D”), resulting in a final cell density which was equal to 85% transmittance using a BioRad SmartSpec 3000 Photometer. 680 μL of a 2M sodium succinate/200 μM ferric citrate solution in distilled water was added to 68 mL of the 85% transmittance cell suspension and 100 μL of this mixture was added to each well (the various di-peptides being already present in powder form in the relevant wells of the plate as obtained from the supplier i.e. Biolog Inc.). All plates were incubated in an anaerobic atmosphere at 37° C. Color changes were measured spectrophotometrically at 492 nm (Thermo Scientific Multiskan Ascent) at 24 hrs and 48 hrs using the same plate at both time points. […] After 24 hrs and 48 hrs under continuous shaking in a Multiscan microplate reader, the optical density (OD) of the synthetic medium at 24 hours and 48 hours was measured (using the microplate reader) at a wavelength of 492 nm for each combination of bacterium/dipeptide, and for each of their respective controls (i.e. which contained the particular bacterium but no dipeptide). […] The experiment was carried out three times for each combination of bacterium with dipeptide, with each repeat being carried out on a different day (thus providing three biological replicas). The controls were also carried out three times, as above. The values shown are the average (mean) of the three single values obtained (as detailed above) for each combination of bacterium with dipeptide, at 24 hrs and at 48 hrs.

Actinomyces naeslundii = assay: Metabolic activity, Biolog phenotype microarray; conditions: control without dipeptide = 1
Method: as §1

Streptococcus mitis = assay: Metabolic activity, Biolog phenotype microarray; conditions: control without dipeptide = 1
Method: as §1

Streptococcus sanguinis = assay: Metabolic activity, Biolog phenotype microarray; conditions: control without dipeptide = 1
Method: as §1

Veillonella parvula = assay: Metabolic activity, Biolog phenotype microarray; conditions: control without dipeptide = 1
Method: as §1

Streptococcus gordonii = assay: Metabolic activity, Biolog phenotype microarray; conditions: control without dipeptide = 1
Method: as §1

Prevotella intermedia = assay: Metabolic activity, Biolog phenotype microarray; conditions: control without dipeptide = 1
Method: as §1

Fusobacterium nucleatum = assay: Metabolic activity, Biolog phenotype microarray; conditions: control without dipeptide = 1
Method: as §1

Capnocytophaga sputigena = assay: Metabolic activity, Biolog phenotype microarray; conditions: control without dipeptide = 1
Method: as §1

Streptococcus sobrinus = assay: Metabolic activity, Biolog phenotype microarray; conditions: control without dipeptide = 1
Method: as §1

Streptococcus mutans = assay: Metabolic activity, Biolog phenotype microarray; conditions: control without dipeptide = 1
Method: as §1

Actinomyces viscosus = assay: Metabolic activity, Biolog phenotype microarray; conditions: control without dipeptide = 1
Method: as §1

Porphyromonas gingivalis = assay: Metabolic activity, Biolog phenotype microarray; conditions: control without dipeptide = 1
Method: as §1

Streptococcus salivarius = assay: Metabolic activity, Biolog phenotype microarray; conditions: control without dipeptide = 1
Method: as §1

Tannerella forsythia = assay: Metabolic activity, Biolog phenotype microarray; conditions: control without dipeptide = 1
Method: as §1

[2] = test system: beneficial oral bacteria and pathogenic oral bacteria; assay: Metabolic activity, whole panel: prebiotic effect; conditions: for prebiotic effects (metabolic activity): threshold value of 2
Method: Substrates that were able to increase the metabolic activity of at least one of the above beneficial bacteria while not or only minimally increasing the growth of the pathogenic bacteria are considered to be prebiotic substrates. The extent of metabolic activity of the tested bacteria in the presence of the above-mentioned dipeptides after 24 hours and 48 hours was investigated through a high throughput phenotype microarray system (PM) for microbial cells (Biolog Inc.). Each PM can contain up to 95 different biochemical compounds (e.g. di-peptides) that may act as substrates for bacteria as well as one negative control, not containing the substrates. Microarray plates were used in which the different wells of each plate were pre-loaded (by the manufacturer, Biolog Inc.) with different di-peptides to be tested. Each bacterial species was tested using a separate microarray plate. Thus, a single bacterial species was tested with a variety of dipeptides on each particular plate. The microarrays are based on redox technology, using cell respiration as a universal reporter. Active cell respiration results in the reduction of a tetrazolium dye and in the formation of a strong color—for example, when using the tetrazolium dye “Biolog Redox Dye Mix D”, the color changes from transparent/colourless to purple when the dye is reduced. The observation of this color change indicates which of the substrates improve the metabolic activity and health of the cells. Each bacterial species was collected from blood agar plates (incubated for 48 hours anaerobically at 37° C.) and transferred to an IF-0 Base inoculation fluid (Biolog Inc.), which is a nutritionally poor medium. The resulting cell suspension was adjusted to a transmittance of 42% (relative to the transmittance of the base inoculation fluid with no bacterial species present) at 492 nm using a BioRad SmartSpec 3000 Photometer (the adjustment being effected by adding either further inoculation fluid or further bacteria until the transmittance of 42% was achieved). A 1:5 dilution of this suspension was prepared by mixing 3 mL of the 42% transmittance cell suspension with 15 mL of an inoculation fluid (which inoculation fluid was formed by mixing 11.6 mL sterile water, 62.5 mL IF-0 base inoculation fluid and 0.9 mL of the tetrazolium dye “Biolog Redox Dye mix D”), resulting in a final cell density which was equal to 85% transmittance using a BioRad SmartSpec 3000 Photometer. 680 μL of a 2M sodium succinate/200 μM ferric citrate solution in distilled water was added to 68 mL of the 85% transmittance cell suspension and 100 μL of this mixture was added to each well (the various di-peptides being already present in powder form in the relevant wells of the plate as obtained from the supplier i.e. Biolog Inc.). All plates were incubated in an anaerobic atmosphere at 37° C. Color changes were measured spectrophotometrically at 492 nm (Thermo Scientific Multiskan Ascent) at 24 hrs and 48 hrs using the same plate at both time points. […] After 24 hrs and 48 hrs under continuous shaking in a Multiscan microplate reader, the optical density (OD) of the synthetic medium at 24 hours and 48 hours was measured (using the microplate reader) at a wavelength of 492 nm for each combination of bacterium/dipeptide, and for each of their respective controls (i.e. which contained the particular bacterium but no dipeptide). […] The experiment was carried out three times for each combination of bacterium with dipeptide, with each repeat being carried out on a different day (thus providing three biological replicas). The controls were also carried out three times, as above. The values shown are the average (mean) of the three single values obtained (as detailed above) for each combination of bacterium with dipeptide, at 24 hrs and at 48 hrs. […] This value was selected in order to exclude low-stimulating metabolites and avoid false positive results.

Substance	metabolic activity: OD 492 nm divided by OD of control ([1]; 24 hrs)	metabolic activity: OD 492 nm divided by OD of control ([1]; 48 hrs)	metabolic activity: OD 492 nm divided by OD of control (Actinomyces naeslundii; 24 hrs)	metabolic activity: OD 492 nm divided by OD of control (Actinomyces naeslundii; 48 hrs)	metabolic activity: OD 492 nm divided by OD of control (Streptococcus mitis; 24 hrs)	metabolic activity: OD 492 nm divided by OD of control (Streptococcus mitis; 48 hrs)	metabolic activity: OD 492 nm divided by OD of control (Streptococcus sanguinis; 24 hrs)	metabolic activity: OD 492 nm divided by OD of control (Streptococcus sanguinis; 48 hrs)	metabolic activity: OD 492 nm divided by OD of control (Veillonella parvula; 24 hrs)	metabolic activity: OD 492 nm divided by OD of control (Veillonella parvula; 48 hrs)	metabolic activity: OD 492 nm divided by OD of control (Streptococcus gordonii; 24 hrs)	metabolic activity: OD 492 nm divided by OD of control (Streptococcus gordonii; 48 hrs)	metabolic activity: OD 492 nm divided by OD of control (Prevotella intermedia; 24 hrs)	metabolic activity: OD 492 nm divided by OD of control (Prevotella intermedia; 48 hrs)	metabolic activity: OD 492 nm divided by OD of control (Fusobacterium nucleatum; 24 hrs)	metabolic activity: OD 492 nm divided by OD of control (Fusobacterium nucleatum; 48 hrs)	metabolic activity: OD 492 nm divided by OD of control (Capnocytophaga sputigena; 24 hrs)	metabolic activity: OD 492 nm divided by OD of control (Capnocytophaga sputigena; 48 hrs)	metabolic activity: OD 492 nm divided by OD of control (Streptococcus sobrinus; 24 hrs)	metabolic activity: OD 492 nm divided by OD of control (Streptococcus sobrinus; 48 hrs)	further results
Ser-Leu	1.6871	2.2912	1.4949	1.8831	1.6052	2.0461	1.2625	1.6049	1.4153	1.4281	1.5333	1.8912	1.5403	1.8484	1.4813	1.7358	1.9645	1.6522	1.4887	2.0704	metabolic activity: OD 492 nm divided by OD of control (Streptococcus mutans; 24 hrs): 1.6244; metabolic activity: OD 492 nm divided by OD of control (Streptococcus mutans; 48 hrs): 2.2977; metabolic activity: OD 492 nm divided by OD of control (Actinomyces viscosus; 24 hrs): 2.2523; metabolic activity: OD 492 nm divided by OD of control (Actinomyces viscosus; 48 hrs): 2.5540; metabolic activity: OD 492 nm divided by OD of control (Porphyromonas gingivalis; 24 hrs): 1.4626; metabolic activity: OD 492 nm divided by OD of control (Porphyromonas gingivalis; 48 hrs): 1.8440; metabolic activity: OD 492 nm divided by OD of control (Streptococcus salivarius; 24 hrs): 1.4865; metabolic activity: OD 492 nm divided by OD of control (Streptococcus salivarius; 48 hrs): 2.0833; metabolic activity: OD 492 nm divided by OD of control (Tannerella forsythia; 24 hrs): 1.3950; metabolic activity: OD 492 nm divided by OD of control (Tannerella forsythia; 48 hrs): 1.8466; prebiotic effects (metabolic activity) ([2]; 24 hrs): exhibited prebiotic effects; speed of metabolism by beneficial versus pathogenic bacteria ([2]; value of 2 reached at 24 hrs for beneficial but not pathogenic bacteria): metabolized faster by the beneficial bacteria than by the pathogenic bacteria
Trp-Leu	1.0357	1.1455	1.1778	1.4354	1.0445	1.0524	0.9310	0.9561	0.8734	0.7918	1.2109	1.2858	1.0663	1.0399	0.9945	1.0254	0.8565	0.9454	1.1681	1.2761	metabolic activity: OD 492 nm divided by OD of control (Streptococcus mutans; 24 hrs): 1.0145; metabolic activity: OD 492 nm divided by OD of control (Streptococcus mutans; 48 hrs): 1.1337; metabolic activity: OD 492 nm divided by OD of control (Actinomyces viscosus; 24 hrs): 1.6496; metabolic activity: OD 492 nm divided by OD of control (Actinomyces viscosus; 48 hrs): 2.0774; metabolic activity: OD 492 nm divided by OD of control (Porphyromonas gingivalis; 24 hrs): 1.0236; metabolic activity: OD 492 nm divided by OD of control (Porphyromonas gingivalis; 48 hrs): 1.2127; metabolic activity: OD 492 nm divided by OD of control (Streptococcus salivarius; 24 hrs): 1.0960; metabolic activity: OD 492 nm divided by OD of control (Streptococcus salivarius; 48 hrs): 1.1505; metabolic activity: OD 492 nm divided by OD of control (Tannerella forsythia; 24 hrs): 1.0234; metabolic activity: OD 492 nm divided by OD of control (Tannerella forsythia; 48 hrs): 1.1079; prebiotic effects (metabolic activity) ([2]; 48 hrs): exhibited prebiotic effects
